The text below walks through data of ChEMBL document CHEMBL1149085, “Potential utility of histamine H3 receptor antagonist pharmacophore in antipsychotics” (Bioorg Med Chem Lett, 2009).

By pKi is commonly meant −log10 of the Ki, conventionally taken in molar units. A high value points to a low Ki. Broadly, the ED50 is the dose at which the effect has come halfway, by size or by number of responders.

In test [1] the target is D(1B) dopamine receptor (Homo sapiens, UniProt P21918). Kind of test: biochemical.
D(1B) dopamine receptor, sequence (P21918 whole entry): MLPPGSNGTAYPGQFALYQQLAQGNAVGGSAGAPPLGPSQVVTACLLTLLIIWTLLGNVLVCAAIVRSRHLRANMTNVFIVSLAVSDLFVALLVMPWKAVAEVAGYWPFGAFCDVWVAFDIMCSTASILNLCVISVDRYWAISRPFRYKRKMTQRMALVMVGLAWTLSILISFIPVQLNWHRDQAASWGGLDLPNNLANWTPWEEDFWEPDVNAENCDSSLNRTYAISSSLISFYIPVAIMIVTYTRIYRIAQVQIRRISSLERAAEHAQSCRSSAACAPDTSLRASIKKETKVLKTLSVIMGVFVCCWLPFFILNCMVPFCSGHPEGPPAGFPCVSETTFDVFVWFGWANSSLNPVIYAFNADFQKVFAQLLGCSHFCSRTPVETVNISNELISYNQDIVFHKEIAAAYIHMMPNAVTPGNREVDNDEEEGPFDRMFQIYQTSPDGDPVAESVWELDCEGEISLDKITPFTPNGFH
Description: Displacement of [3H]SCH23390 from human dopamine D5 receptor expressed in HEK cells
The target in test [2] is D(2) dopamine receptor (Homo sapiens, UniProt P14416). Kind of test: biochemical. Type of test: cell-based, CHO.
D(2) dopamine receptor, sequence (P14416 whole entry): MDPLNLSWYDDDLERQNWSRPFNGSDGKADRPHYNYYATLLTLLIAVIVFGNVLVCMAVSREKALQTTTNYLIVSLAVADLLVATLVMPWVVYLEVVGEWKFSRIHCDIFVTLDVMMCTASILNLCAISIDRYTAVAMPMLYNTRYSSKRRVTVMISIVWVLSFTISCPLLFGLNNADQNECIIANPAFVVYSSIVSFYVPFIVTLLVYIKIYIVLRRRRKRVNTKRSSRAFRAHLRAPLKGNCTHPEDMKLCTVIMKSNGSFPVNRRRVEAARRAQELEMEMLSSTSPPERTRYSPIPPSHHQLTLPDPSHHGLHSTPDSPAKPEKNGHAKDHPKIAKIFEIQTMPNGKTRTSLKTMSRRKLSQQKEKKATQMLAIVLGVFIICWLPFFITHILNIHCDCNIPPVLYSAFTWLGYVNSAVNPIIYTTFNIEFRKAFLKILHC
Description: Displacement of [3H]spiperone from human dopamine D2 receptor expressed in CHO cells
The target of test [3] is D(1A) dopamine receptor (Homo sapiens, UniProt P21728). Nature of the test: biochemical.
D(1A) dopamine receptor, sequence (P21728 whole entry): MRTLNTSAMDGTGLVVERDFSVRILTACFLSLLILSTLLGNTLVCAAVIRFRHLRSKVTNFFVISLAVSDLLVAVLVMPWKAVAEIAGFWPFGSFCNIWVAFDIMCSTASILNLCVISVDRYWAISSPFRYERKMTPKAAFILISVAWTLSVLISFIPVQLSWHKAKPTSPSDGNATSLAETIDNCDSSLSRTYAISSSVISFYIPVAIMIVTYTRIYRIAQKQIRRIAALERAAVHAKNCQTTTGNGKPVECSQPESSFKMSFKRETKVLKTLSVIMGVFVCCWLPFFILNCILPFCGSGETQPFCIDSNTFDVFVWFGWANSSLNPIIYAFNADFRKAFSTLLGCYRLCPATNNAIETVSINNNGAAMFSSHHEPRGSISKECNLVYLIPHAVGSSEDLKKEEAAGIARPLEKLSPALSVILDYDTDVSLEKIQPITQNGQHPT
Description: Displacement of [3H]SCH23390 from human dopamine D1 receptor expressed in HEK cells
The target of test [4] is D(3) dopamine receptor (Homo sapiens, UniProt P35462). Nature of the test: biochemical.
D(3) dopamine receptor, sequence (P35462 whole entry): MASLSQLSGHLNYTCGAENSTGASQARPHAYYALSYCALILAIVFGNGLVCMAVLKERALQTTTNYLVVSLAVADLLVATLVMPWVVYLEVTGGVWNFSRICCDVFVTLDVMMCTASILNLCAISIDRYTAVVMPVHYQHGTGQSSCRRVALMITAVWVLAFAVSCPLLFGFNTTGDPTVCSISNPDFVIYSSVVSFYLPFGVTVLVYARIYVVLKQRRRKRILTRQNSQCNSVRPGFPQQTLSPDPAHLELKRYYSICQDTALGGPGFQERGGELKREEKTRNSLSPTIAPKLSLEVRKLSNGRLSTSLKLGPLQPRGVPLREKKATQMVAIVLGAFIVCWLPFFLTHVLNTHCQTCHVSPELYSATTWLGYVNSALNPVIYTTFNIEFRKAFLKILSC
Description: Displacement of [3H]spiperone from human dopamine D3 receptor expressed in CHO cells
For test [5], the target named is Histamine H3 receptor (Homo sapiens, UniProt Q9Y5N1). Nature of the test: biochemical. Type of test: cell-based, HEK293.
Histamine H3 receptor, sequence (Q9Y5N1 whole entry): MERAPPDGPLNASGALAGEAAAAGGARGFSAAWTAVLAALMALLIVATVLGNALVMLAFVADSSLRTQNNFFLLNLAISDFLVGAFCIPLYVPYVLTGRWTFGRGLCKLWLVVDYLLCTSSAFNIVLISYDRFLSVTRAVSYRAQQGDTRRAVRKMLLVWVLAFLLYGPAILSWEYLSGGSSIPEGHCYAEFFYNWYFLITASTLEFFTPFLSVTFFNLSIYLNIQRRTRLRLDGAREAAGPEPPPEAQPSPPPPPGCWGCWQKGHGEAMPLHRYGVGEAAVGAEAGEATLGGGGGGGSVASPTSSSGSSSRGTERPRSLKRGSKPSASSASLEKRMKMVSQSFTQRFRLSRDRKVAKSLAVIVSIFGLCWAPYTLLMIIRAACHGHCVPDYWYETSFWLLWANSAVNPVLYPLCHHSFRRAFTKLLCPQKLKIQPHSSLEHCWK
Description: Displacement of [125I]iodoproxyfan from human histamine H3 receptor expressed in CHO/HEK293 cells
The species named for test [6] is Mus musculus. Nature of the test: animal or person. Conditions: Swiss, Cerebral cortex, po, 1.5 h. Type of test: functional.
Description: Antagonist activity at histamine H3 receptor in po dosed Swiss mouse cerebral cortex assessed as Ntau-methylhistamine level after 90 mins by radioimmunoassay

pKi: −log10 of the molar value. Where only a bound is given, the exact number is not on record here.

Take `O=C(OCCN1CCN(CCCN2c3ccccc3Sc3ccc(C(F)(F)F)cc32)CC1)c1ccc(OCCCN2CCCCC2)cc1`: the pKi in test [1] is 6.58; in test [2], 7.33; in test [3], 6.69; in test [4], 7.82; in test [5] it was 10.38.
Take `CN(CCC=C1c2ccccc2CCc2ccccc21)C(=O)Cc1ccc(OCCCN2CCCCC2)cc1`: the pKi is less than 6.00 in test [1]; 6.04 in test [2]; 6.06 in test [3]; 6.49 in test [4]; 8.31 in test [5].
The molecule `CN(CCC=C1c2ccccc2CCc2ccccc21)Cc1ccc(OCCCN2CCCCC2)cc1` showed an ED50 in test [6] greater than 10 mg/kg. The pKi in test [1] is 6.56; in test [2], 7.00; in test [3] it was 6.52; in test [4], 7.17; in test [5], 9.60.
With `CN(CCCN1c2ccccc2Sc2ccc(Cl)cc21)Cc1ccc(OCCCN2CCCCC2)cc1`, the pKi was 6.82 in test [1]; 7.39 in test [2]; 6.63 in test [3]; 7.30 in test [4]; 8.92 in test [5].
For the molecule `CN(CCC=C1c2ccccc2CCc2ccccc21)C(=O)c1ccc(OCCCN2CCCCC2)cc1`, the negative logarithm of the Ki (pKi) in test [1] is less than 6.00; in test [2] it was less than 6.00; in test [3] it was less than 6.00; in test [4] it was 6.61; in test [5] it was 8.46.
Regarding `Clc1ccc2c(c1)N=C(N1CCN(Cc3ccc(OCCCN4CCCCC4)cc3)CC1)c1ccccc1N2`, the pKi in test [1] is 6.04; in test [2] it was 6.55; in test [3] it was 6.06; in test [4], 6.65; in test [5] it was 8.49.
In the same order, the values of `CN(CCCC12CCC(c3ccccc31)c1ccccc12)Cc1ccc(OCCCN2CCCCC2)cc1` are 6.58, 6.84, 6.69, 6.83 and 9.45.
Turning to `CN(CC/C=C1\c2ccccc2Sc2ccc(Cl)cc21)Cc1ccc(OCCCN2CCCCC2)cc1`, the negative logarithm of the Ki (pKi) in test [2] was 7.28; in test [3], 6.61; in test [4], 7.30; in test [5] it was 8.81.
With `CN(C)CCC=C1c2ccccc2CCc2ccccc21` [AMITRIPTYLINE], the pKi was 6.77 in test [1]; 6.71 in test [2]; […] in test [3]; 6.69 in test [4]; less than 6.00 in test [5].
Turning to `CN(C)CC/C=C1/c2ccccc2Sc2ccc(Cl)cc21` [CHLORPROTHIXENE], the pKi in test [1] was 8.05; in test [2], 8.53; in test [4], 8.34.
